As a reminder, the EC50 is the concentration needed to bring the measured effect to its halfway point. For orientation: IC50 means the concentration needed to halve the response being measured. The term inhibition denotes the drop in the measured response relative to a control, in per cent.

Each structure is given as a SMILES string.

The results in this text go back to patent US10934297B2, “5-heteroaryl substituted indazole-3-carboxamides and preparation and use thereof” (Samumed, LLC, priority 2018, dated 2021).

Assay [1] deals with SW480 colon carcinoma cells. As to the kind of experiment: Cell viability assay (CellTiter-Glo) in SW480 colon carcinoma cells. Format: cell-based, human. The note with it: Homo sapiens, 96 h, four days. In a few lines: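 SW480 cells stably carrying an Sp5-promoter luciferase reporter were plated at 2,000 cells/well in DMEM with 1% FBS and treated with compound for four days at 37 °C. Viability was read as ATP luminescence with CellTiter-Glo after about 12 min; DMSO-treated wells served as controls.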

In assay [2] the target is DYRK1A kinase (Homo sapiens (Human), UniProt Q13627). As to the kind of experiment: DYRK1A kinase assay (Ser/Thr 18 peptide Z-lyte FRET). The class given is biochemical. The note with it: read-out: EC50 (method: IC50). In a few lines:
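This Z-lyte FRET assay reads the coumarin/fluorescein emission ratio. Compounds were incubated with the reaction mixture for 1 h at room temperature, followed by development reagent for a further 1 h at room temperature, in duplicate.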

Assay [3] has as its system primary human fibroblasts derived from IPF patients (LL29 cells). Kind of assay: Inhibition of the fibrotic process: αSMA staining in TGF-β1 treated LL29 fibroblasts. The conditions noted are these: Homo sapiens, Fibroblast, 96 h; LL29 cells, TGF-β1 20 ng/mL, 4 days, % αSMA positive cells. Format: cell-based. The method, boiled down: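 LL29 fibroblasts from IPF patients, in F12 medium with 1% FBS, treated with TGF-β1 plus compound; TGF-β1 with DMSO as positive control, DMSO alone as negative control. After 4 days' incubation, SYTOX green nucleic acid stain added at 1 μM final, 30 min at room temperature.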

For assay [4], the system named is IL-6. Kind of assay: IL-6 inhibition in LPS-stimulated human peripheral blood mononuclear cells (HTRF). Format: cell-based. The conditions noted are these: Homo sapiens, PBMC; for EC50: huPBMCs, LPS 50 ng/mL, 22 hours, IL-6 HTRF; for inhibition at 10 µM: read-out: percent inhibition at 10 μM. As to the method:
Fresh Normal PB MNC (Catalog #PB001, AllCells, Alameda, Calif.) were shipped overnight at 4° C. and resuspended in Roswell Park Memorial Institute (RPMI) 1640 Medium, with GlutaMAX Supplement (Catalog #61870127, ThermoFisher Scientific, Waltham, Mass.) supplemented with 1% Penicillin-Streptomycin (Catalog #15140163. ThermoFisher Scientific, Waltham, Mass.) and 1% fetal bovine serum (FBS) (Catalog #16140089, ThermoFisher Scientific, Waltham, Mass.) assay media. Fresh normal human peripheral blood mononuclear cells (huPBMCs) were resuspended in 1% FBS-RPMI assay media with 1% Penicillin-Streptomycin 1% to a cell concentration of 1×10e6 cells/mL. […] 50 ng/mL of Lipopolysaccharides from Escherichia coli 0111:B4 (Catalog #L5293-2ML, Sigma-Aldrich, St. Louis, Mo.) was added after 2 hours and cells were incubated for another 22 hours at 37° C.-5% CO2. After 22 hour incubation, a mixture of anti-IL6 XL665 and anti-IL-6 Cryptate diluted in reconstitution buffer (Catalog #62IL6PEC, Cisbio Inc., Bedford, Mass.) was added to each well. Following incubation for 3 hours at room temperature, Homogeneous Time-Resolved Fluorescence (HTRF) was measured using the Envision (Perkin Elmer, Shelton, Conn.) at 665 nm and […]. The ratio of fluorescence at 665 nm to 620 nm was used as a readout for IL-6 quantification. All samples were processed in duplicate. Readings were normalized to DMSO treated cells and normalized activities were utilized for EC50 calculations.
For orientation: In TR-FRET formats the signal depends on donor and acceptor labels being close together.

The target in assay [5] is GSK3β kinase (Homo sapiens (Human), UniProt P49841). Kind of assay: GSK3β kinase assay (Ser/Thr 09 peptide Z-lyte FRET). Format: biochemical. The note with it: read-out: EC50 (method: IC50). In a few lines:
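Non-radioactive Z-lyte FRET read-out, kinase activity expressed as coumarin/fluorescein emission ratio. Compounds incubated with the reaction mixture one hour at room temperature in duplicate, then development buffer added for another hour. IC50 from non-linear regression of dose-response curves.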

The test system of assay [6] is Wnt activity (Sp5-Luc reporter in SW480 cells). As to the kind of experiment: Screening assay for Wnt activity: Sp5-Luc reporter gene assay in SW480 colon carcinoma cells. The class given is cell-based, human. The conditions noted are these: Homo sapiens, 36 to 48 hours. The method, boiled down: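 SW480 colon carcinoma cells stably carrying a lentiviral luciferase reporter driven by an Sp5 promoter with eight TCF/LEF sites, plated at 4,000 cells/well in DMEM with 1% FBS. Compound exposure for 36–48 h at 37 °C, then luminescence read. Signals normalized to DMSO; EC50 from four-parameter nonlinear fit.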

Chain of GSK3β kinase (P49841 whole entry): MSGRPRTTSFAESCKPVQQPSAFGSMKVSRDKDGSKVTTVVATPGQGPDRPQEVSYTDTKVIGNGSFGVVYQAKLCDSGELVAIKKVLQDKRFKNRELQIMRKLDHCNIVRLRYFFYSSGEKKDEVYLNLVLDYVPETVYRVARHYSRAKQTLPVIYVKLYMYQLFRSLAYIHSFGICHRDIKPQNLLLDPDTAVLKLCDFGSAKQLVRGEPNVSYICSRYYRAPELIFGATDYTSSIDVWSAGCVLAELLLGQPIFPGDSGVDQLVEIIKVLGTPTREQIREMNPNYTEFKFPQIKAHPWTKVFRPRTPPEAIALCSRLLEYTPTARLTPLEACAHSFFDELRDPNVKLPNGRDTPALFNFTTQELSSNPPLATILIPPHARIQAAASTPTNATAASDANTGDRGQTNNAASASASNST

As for `O=C(N[C@H]1CC[C@H](CN2CC(F)C2)CC1)c1n[nH]c2ccc(-c3cnn(C4CC4)c3)cc12` [Compound 26, 5-(1-Cyclopropyl-1H-pyrazol-4-yl)-N-((1R,4R)-4-((3-fluoroazetidin-1-yl)methyl)cyclohexyl)-1H-indazole-3-carboxamide], the EC50 is 849 nM in assay [1], over 10000 nM in assay [3], 1040 nM in assay [4] and 1180 nM in assay [6]. Moreover, the figures for the IC50 in assay [2] and in assay [5] were 5 nM and 34 nM, respectively.
As to `O=C(N[C@H]1CC[C@H](CN2CC(F)C2)CC1)c1n[nH]c2ccc(-c3cnn4c3CCCC4)cc12` [Compound 27, N-((1R,4R)-4-((3-Fluoroazetidin-1-yl)methyl)cyclohexyl)-5-(4,5,6,7-tetrahydropyrazolo[1,5-a]pyridin-3-yl)-1H-indazole-3-carboxamide], the EC50 was found to be 6450 nM in assay [1], 346 nM in assay [3], 3820 nM in assay [4] and 677 nM in assay [6]. The IC50 in assay [2] is 4 nM; in assay [5], 12 nM.
With `Cn1cc(-c2ccc3[nH]nc(C(=O)N[C@H]4CC[C@H](CN5CCCC5)CC4)c3c2)cn1` [Compound 28, 5-(1-Methyl-1H-pyrazol-4-yl)-N-((1R,4R)-4-(pyrrolidin-1-ylmethyl)cyclohexyl)-1H-indazole-3-carboxamide], the EC50 in assay [1] was 442 nM; in assay [3], 409 nM; in assay [4], 401 nM; in assay [6] it was 688 nM. Besides, the figures for the concentration for half-maximal inhibition (IC50) in assay [2] and in assay [5] were 2 nM and 11 nM, respectively.
As to `CC(C)CN1CC[C@@H](NC(=O)c2n[nH]c3ccc(-c4cnn(C)c4)cc23)[C@@H](F)C1` [Compound 31, N-((3S,4R)-3-Fluoro-1-isobutylpiperidin-4-yl)-5-(1-methyl-1H-pyrazol-4-yl)-1H-indazole-3-carboxamide], the EC50 in assay [1] was over 10000 nM; in assay [3] it was 2460 nM; in assay [4], 4260 nM; in assay [6], 610 nM. Besides, the IC50 in assay [2] is 26 nM; in assay [5], 55 nM.
With `CC(C)CN1CC[C@@H](NC(=O)c2n[nH]c3ccc(-c4cnn(C)c4)cc23)[C@H](F)C1` [Compound 32, N-((3R,4R)-3-Fluoro-1-isobutylpiperidin-4-yl)-5-(1-methyl-1H-pyrazol-4-yl)-1H-indazole-3-carboxamide], the EC50 in assay [1] amounted to 1320 nM; in assay [3], 372 nM; in assay [4], 1270 nM; in assay [6] it was 1830 nM. Moreover, the IC50 stood at 5 nM in assay [2] and 31 nM in assay [5].
In the case of `CC(C)CN1CC[C@H](NC(=O)c2n[nH]c3ccc(-c4cnn(C)c4)cc23)[C@@H](F)C1` [Compound 33, N-((3 S,4S)-3-Fluoro-1-isobutylpiperidin-4-yl)-5-(1-methyl-1H-pyrazol-4-yl)-1H-indazole-3-carboxamide], the concentration for a half-maximal effect (EC50) in assay [1] was over 10000 nM; in assay [3] it was 43 nM; in assay [4], 3150 nM; in assay [6], 267 nM. In addition, the IC50 in assay [2] came to 24 nM; in assay [5], 36 nM.
Regarding `CC(C)(F)CN1CCC(NC(=O)c2n[nH]c3ccc(-c4cn[nH]c4)cc23)CC1` [Compound 36, N-(1-(2-Fluoro-2-methylpropyl)piperidin-4-yl)-5-(1H-pyrazol-4-yl)-1H-indazole-3-carboxamide], the concentration giving a half-maximal response (EC50) in assay [1] came out at 691 nM; in assay [3], 147 nM; in assay [4], 348 nM; in assay [6] it was 474 nM. Further, the IC50 in assay [2] worked out at 7 nM; in assay [5] it was 23 nM.
Turning to `Cn1cc(-c2ccc3[nH]nc(C(=O)NC4CCN(CC(C)(C)F)CC4)c3c2)cn1` [Compound 37, N-(1-(2-Fluoro-2-methylpropyl)piperidin-4-yl)-5-(1-methyl-1H-pyrazol-4-yl)-1H-indazole-3-carboxamide], the EC50 was found to be 849 nM in assay [1], 118 nM in assay [3], 546 nM in assay [4] and 747 nM in assay [6]. Further, the IC50 was 5 nM in assay [2] and 14 nM in assay [5].
Regarding `Cn1cc(-c2cc(Cl)c3[nH]nc(C(=O)NC4CCN(CC(C)(C)F)CC4)c3c2)cn1` [Compound 38, 7-Chloro-N-(1-(2-fluoro-2-methylpropyl)piperidin-4-yl)-5-(1-methyl-1H-pyrazol-4-yl)-1H-indazole-3-carboxamide], the EC50 in assay [1], in assay [3], in assay [4] and in assay [6] was over 10000 nM throughout. Also, the 50% inhibitory concentration (IC50) in assay [2] and in assay [5] was over 10000 nM throughout. Besides, in assay [4], the inhibition at 10 µM came out at 8.8%.
On to `CCn1cc(-c2ccc3[nH]nc(C(=O)NC4CCN(CC(C)(C)F)CC4)c3c2)cn1` [Compound 39, 5-(1-Ethyl-1H-pyrazol-4-yl)-N-(1-(2-fluoro-2-methylpropyl)piperidin-4-yl)-1H-indazole-3-carboxamide], for which the EC50 in assay [1] came out at 1310 nM; in assay [3], 272 nM; in assay [4], 1260 nM; in assay [6] it was 3880 nM. In addition, the IC50 in assay [2] came out at 22 nM; in assay [5], 33 nM.
As for `CC(C)(F)CN1CCC(NC(=O)c2n[nH]c3ccc(-c4cnn(C5CC5)c4)cc23)CC1` [Compound 40, 5-(1-Cyclopropyl-1H-pyrazol-4-yl)-N-(1-(2-fluoro-2-methylpropyl)piperidin-4-yl)-1H-indazole-3-carboxamide], the EC50 in assay [1] stood at 1080 nM; in assay [3], 68 nM; in assay [4], 1930 nM; in assay [6] it was 1720 nM. Also, the values for the IC50 in assay [2] and in assay [5] were 45 nM and 687 nM, respectively.
As for `Cn1ncc(-c2ccc3[nH]nc(C(=O)NC4CCN(CC(C)(C)F)CC4)c3c2)c1C(F)F` [Compound 41, 5-(5-(Difluoromethyl)-1-methyl-1H-pyrazol-4-yl)-N-(1-(2-fluoro-2-methylpropyl)piperidin-4-yl)-1H-indazole-3-carboxamide], the EC50 in assay [1] turned out to be 3000 nM; in assay [3] it was 342 nM; in assay [4] it was 2860 nM; in assay [6], 828 nM. The results for the IC50 in assay [2] and in assay [5] were 250 nM and 76 nM, respectively.
On to `Cc1noc(C)c1-c1ccc2[nH]nc(C(=O)NC3CCN(CC(C)(C)F)CC3)c2c1` [Compound 43, 5-(3,5-Dimethylisoxazol-4-yl)-N-(1-(2-fluoro-2-methylpropyl)piperidin-4-yl)-1H-indazole-3-carboxamide], for which the concentration for a half-maximal effect (EC50) was over 10000 nM in assay [1], 2170 nM in assay [3], 9150 nM in assay [4] and over 10000 nM in assay [6]. For the same compound, the IC50 in assay [2] was determined as 67 nM; in assay [5], 1060 nM.
For the compound `CN1CC2(CCC(NC(=O)c3n[nH]c4ccc(-c5cnn(C)c5)cc34)CC2)C1` [Compound 45, 5-(1-Methyl-1H-pyrazol-4-yl)-N-(2-methyl-2-azaspiro [3.5]nonan-7-yl)-1H-indazole-3-carboxamide], the EC50 was 4770 nM in assay [1], 355 nM in assay [3], 1270 nM in assay [4] and 1650 nM in assay [6]. The IC50 came to 6 nM in assay [2] and 31 nM in assay [5].
As for `O=C(Nc1ccc(F)cc1)c1n[nH]c2ccc(-c3cnn(C4CC4)c3)cc12` [Compound 46, 5-(1-Cyclopropyl-1H-pyrazol-4-yl)-N-(4-fluorophenyl)-1H-indazole-3-carboxamide], the EC50 in assay [1] is 4500 nM; in assay [3], 543 nM; in assay [4], over 10000 nM; in assay [6], 1460 nM. The IC50 was 4450 nM in assay [2] and 704 nM in assay [5]. The inhibition at 10 µM in assay [4] stood at 48.3%.
